Laboratory results taken from US12421216B2, “Voruciclib polymorphs and methods of making and using thereof” (MEI PHARMA, INC., priority 2019, dated 2025).

Assays:
[1] = Physical stability upon exposure to accelerated aging conditions (AAC, 40° C./75% RH), re-analysis by HT-XRPD; type: physicochemical; conditions: for Physical stability upon exposure to AAC / Stable during AAC: 40° C./75% RH, 2 days; for Physical stability upon exposure to AAC: HT-XRPD before and after; for Stable during AAC: salt screen solids; for Liquid phase AAC (XRPD form after accelerated aging): solids from evaporated mother liquors of the salt screen; for Liquid phase AAC (XRPD form after accelerated aging) / Solid phase AAC (XRPD form after accelerated aging): 40° C./75% RH for 2 days, HT-XRPD; for Solid phase AAC (XRPD form after accelerated aging): precipitated solids of the salt screen, dried under vacuum at 50° C.
[2] = Solubility of salts in water and in 0.2 M phosphate buffer pH 6 at 37° C. after 4 hours (HPLC-DAD); type: physicochemical; conditions: 4 hours
Method: Two sets of solubility experiments were performed. […] In the second set of solubility experiments about 5 mg of the salt was weighed in a standard 1.8 mL HPLC vial. Subsequently, aliquots of 200 μL of aqueous medium were added up to a maximum of 1 mL, while making observations regarding the dissolution behavior of the salts. The vials were left to equilibrate at 37° C. with continuous stirring (see Table 25 for details). After 4 hours the solids were separated from the liquid by centrifugation and the liquid phase was further filtrated through a […] PTFE filter to remove any particulate matter. The concentration of solute was determined by HPLC-DAD analysis. A calibration curve was made from two independent stock solutions of voruciclib prepared in acetonitrile/water. The pH was recorded at the end of the equilibration time.

Compound	Stable during AAC [1]	Liquid phase AAC (XRPD form after accelerated aging) [1]	Solid phase AAC (XRPD form after accelerated aging) [1]	Physical stability upon exposure to AAC [1]	further results
CN1CCC(c2c(O)cc(O)c3c(=O)cc(-c4ccc(C(F)(F)F)cc4Cl)oc23)C1CO.O=C(O)c1ccccc1 (centres unmarked) [Ben1]	No => Ben3	Ben3		physically unstable during exposure to AAC for two days and converted to Ben3	
CN1CC[C@@H](c2c(O)cc(O)c3c(=O)cc(-c4ccc(C(F)(F)F)cc4Cl)oc23)[C@@H]1CO.O=S(=O)(O)c1ccccc1 [Bes1]	No => Am or			physically unstable during exposure to AAC and became less crystalline	
CN1CCC(c2c(O)cc(O)c3c(=O)cc(-c4ccc(C(F)(F)F)cc4Cl)oc23)C1CO.O=C(O)C=CC(=O)O (centres unmarked) [Fum1]	Yes		Fum1		
N[C@@H](CCC(=O)O)C(=O)O [Glm0]			Glm0		
Br.CN1CCC(c2c(O)cc(O)c3c(=O)cc(-c4ccc(C(F)(F)F)cc4Cl)oc23)C1CO (centres unmarked) [HBr1]	No => HBr2	HBr2		physically unstable during exposure to accelerated aging conditions and converted to HBr2	
CN1CCC(c2c(O)cc(O)c3c(=O)cc(-c4ccc(C(F)(F)F)cc4Cl)oc23)C1CO.CN1CCC(c2c(O)cc(O)c3c(=O)cc(-c4ccc(C(F)(F)F)cc4Cl)oc23)C1CO.O=S(=O)(O)c1cccc2c(S(=O)(=O)O)cccc12 (centres unmarked) [Hemi-napadisylate]					Solubility pH 6 ([2]; 0.2 M phosphate buffer pH 6, 37° C.): 0.02 mg/mL; Solubility water ([2]; water, 37° C.): 20 µg/mL

Now from value to compound, other results behind:

Stable during AAC [1]	Liquid phase AAC (XRPD form after accelerated aging) [1]	Solid phase AAC (XRPD form after accelerated aging) [1]	Compound	Physical stability upon exposure to AAC [1]	further results
Yes			CN1CCC(c2c(O)cc(O)c3c(=O)cc(-c4ccc(C(F)(F)F)cc4Cl)oc23)C1CO.O=C(O)CC(O)C(=O)O (centres unmarked) [Mal1]		
Yes	Sul1	Sul1	CN1CC[C@@H](c2c(O)cc(O)c3c(=O)cc(-c4ccc(C(F)(F)F)cc4Cl)oc23)[C@@H]1CO.O=S(=O)(O)O [Sul1]		
Yes		Sul2	CN1CCC(c2c(O)cc(O)c3c(=O)cc(-c4ccc(C(F)(F)F)cc4Cl)oc23)C1CO.CN1CCC(c2c(O)cc(O)c3c(=O)cc(-c4ccc(C(F)(F)F)cc4Cl)oc23)C1CO.O=S(=O)(O)O (centres unmarked) [Sul2]		
Yes			CN1CCC(c2c(O)cc(O)c3c(=O)cc(-c4ccc(C(F)(F)F)cc4Cl)oc23)C1CO.O=S(=O)(O)O (centres unmarked) [Sul4]		
Yes	Xin1		CN1CC[C@@H](c2c(O)cc(O)c3c(=O)cc(-c4ccc(C(F)(F)F)cc4Cl)oc23)[C@@H]1CO.O=C(O)c1ccc2ccccc2c1O [Xin1]	physically stable during exposure to AAC	
